US20090012079A1, “Triazolopyridine Compounds” (priority 2006, published 2009)

Test system: TNFα release from human peripheral blood mononuclear cells
Test: TNFα screen: inhibition of LPS-stimulated TNFα release from human peripheral blood mononuclear cells (ELISA)
Assay type: cell-based
Conditions: human PBMC, LPS stimulation, 18 hours incubation, TNFα in supernatant by ELISA; read-out: TNF IC50
Procedure: Venous blood is collected from healthy volunteers and the mononuclear cells purified by centrifugation through Histopaque (Ficoll) cushions. TNFα production from these cells is stimulated by addition of lipopolysaccharide. After 18 hours incubation in the presence of LPS, the cell supernatant is removed and the concentration of TNFα in the supernatant determined by ELISA. Addition of the compounds of the invention reduces the amount of TNFα produced. An IC50 is determined which is equal to the concentration of compound that gives 50% inhibition of TNFα production as compared to the LPS stimulated control wells.

| IC50 [nM] | SMILES |
| --- | --- |
| 1.8 | CC(C)(C)c1cc(NC(=O)NCc2ccccc2Sc2ccc3nnc(-c4cc(O)ccc4Cl)n3c2)n(-c2cccc(CN3CCOCC3)c2)n1 [Example 6, 1-[5-tert-Butyl-2-(3-morpholin-4-ylmethylphenyl)-2H-pyrazol-3-yl]-3-{2-[3-(2-chloro-5-hydroxyphenyl)-[1,2,4]triazolo[4,3-a]pyridin-6-ylsulfanyl]benzyl}urea] |
| 8.2 | CN(C)Cc1cccc(-n2nc(C(C)(C)C)cc2NC(=O)NCc2ccccc2Sc2ccc3nnc(-c4cc(O)ccc4Cl)n3c2)c1 [Example 4, 1-[5-tert-Butyl-2-(3-dimethylaminomethylphenyl)-2H-pyrazol-3-yl]-3-{2-[3-(2-chloro-5-hydroxy-phenyl)-[1,2,4]triazolo[4,3-a]pyridin-6-ylsulfanyl]benzyl}urea] |
| 4 | CN(C)Cc1cccc(-n2nc(C(C)(C)C)cc2NC(=O)NCc2ccccc2Sc2ccc3nnc(-c4cc(Cl)ccc4O)n3c2)c1 [Example 3, 1-[5-tert-Butyl-2-(3-dimethylaminomethylphenyl)-2H-pyrazol-3-yl]-3-(2-[3-(5-chloro-2-hydroxyphenyl)-[1,2,4]triazolo[4,3-a]pyridin-6-ylsulfanyl]benzyl)urea] |
| 4.3 | CC(C)(C)c1cc(NC(=O)NCc2ccccc2Sc2ccc3nnc(-c4cccc(OCCN5CCOCC5)c4)n3c2)n(-c2ccc(Cl)c(O)c2)n1 [Example 10, 1-[5-tert-Butyl-2-(4-chloro-3-hydroxyphenyl)-2H-pyrazol-3-yl]-3-(2-{3-[3-(2-morpholin-4-yl-ethoxy)phenyl]-[1,2,4]triazolo[4,3-a]pyridin-6-ylsulfanyl}benzyl)urea] |
| 5.5 | CC(C)(C)c1cc(NC(=O)NCc2ccccc2Sc2ccc3nnc(-c4ccc(CN5CCOCC5)cc4)n3c2)n(-c2ccc(O)c(Cl)c2)n1 [Example 8, 1-[5-tert-Butyl-2-(3-chloro-4-hydroxyphenyl)-2H-pyrazol-3-yl]-3-{2-[3-(4-morpholin-4-ylmethylphenyl)-[1,2,4]triazolo[4,3-a]pyridin-6-ylsulfanyl]benzyl}urea] |
| 2.9 | CSCC(C)(C)c1cc(NC(=O)NCc2ccccc2Sc2ccc3nnc(-c4cc(O)ccc4Cl)n3c2)n(-c2cccc(CN(C)C)c2)n1 [Example 2, 1-{2-[3-(2-Chloro-5-hydroxy-phenyl)-[1,2,4]triazolo[4,3-a]pyridin-6-ylsulfanyl]benzyl}-3-[2-(3-dimethylaminomethyl-phenyl)-5-(1,1-dimethyl-2-methylsulfanylethyl)-2H-pyrazol-3-yl]urea] |
| 3 | CC(C)(C)c1cc(NC(=O)NCc2ccccc2Sc2ccc3nnc(-c4ccc(CN5CCOCC5)cc4)n3c2)n(-c2ccc(Cl)c(O)c2)n1 [Example 7, 1-[5-tert-Butyl-2-(4-chloro-3-hydroxyphenyl)-2H-pyrazol-3-yl]-3-{2-[3-(4-morpholin-4-ylmethylphenyl)-[1,2,4]triazolo[4,3-a]pyridin-6-ylsulfanyl]benzyl}urea] |
| 5.6 | CC(C)(C)c1cc(NC(=O)NCc2ccccc2Sc2ccc3nnc(-c4cccc(OCCN5CCOCC5)c4)n3c2)n(-c2ccc(O)c(Cl)c2)n1 [Example 9, 1-[5-tert-Butyl-2-(3-chloro-4-hydroxyphenyl)-2H-pyrazol-3-yl]-3-(2-{3-[3-(2-morpholin-4-ylethoxy)phenyl]-[1,2,4]triazolo[4,3-a]pyridin-6-ylsulfanyl}benzyl)urea] |
| 5.6 | CN(C)CCOc1cccc(-n2nc(C(C)(C)C)cc2NC(=O)NCc2ccccc2Sc2ccc3nnc(-c4cc(Cl)ccc4O)n3c2)c1 [Example 1, 1-{5-tert-Butyl-2-[3-(2-dimethylaminoethoxy)phenyl]-2H-pyrazol-3-yl}-3-{2-[3-(5-chloro-2-hydroxyphenyl)-[1,2,4]triazolo[4,3-a]pyridin-6-ylsulfanyl]benzyl}urea] |
| 2.5 | CC(C)(C)c1cc(NC(=O)NCc2ccccc2Sc2ccc3nnc(-c4cc(Cl)ccc4O)n3c2)n(-c2cccc(CN3CCOCC3)c2)n1 [Example 5, 1-[5-tert-Butyl-2-(3-morpholin-4-ylmethylphenyl)-2H-pyrazol-3-yl]-3-{2-[3-(5-chloro-2-hydroxyphenyl)-[1,2,4]triazolo[4,3-a]pyridin-6-ylsulfanyl]benzyl}urea] |
| 4.9 | CSCC(C)(C)c1cc(NC(=O)NCc2ccccc2Sc2ccc3nnc(-c4cc(Cl)ccc4O)n3c2)n(-c2cccc(CN(C)C)c2)n1 [Example 11, 1-{2-[3-(5-Chloro-2-hydroxy-phenyl)-[1,2,4]triazolo[4,3-a]pyridin-6-ylsulfanyl]benzyl}-3-[2-(3-dimethylaminomethyl-phenyl)-5-(1,1-dimethyl-2-methylsulfanylethyl)-2H-pyrazol-3-yl]urea] |
